Experimental data from patent US5973229A, “Gene encoding herbicide safener binding protein” (Board of Trustees Operating Michigan State University, priority 1997, dated 1999).

Columns and labels:
[1] = biological target: safener binding activity (SafBA) / SafBP; conditions: cited from earlier work; for IC50: maize SafBA, from Walton and Casida 1995, read-out: IC50 (inhibitor concentration that reduces specific [3H]Saf binding by 50%)
[2] = biological target: T1, SafBP (SBP1 expressed in E. coli) (Zea mays, UniProt O49010); experiment: [3H]Saf binding in extracts of E. coli expressing SBP1; parameters: species or system maize (Zea mays L.); conditions: for Total [3H]Saf binding: E. coli/SBP1 2-hr extract, 20.9 μg protein, [3H]R-29148 alone 67.3, average of duplicates
T1 construct: possible vector-derived N-terminal residues
T1 sequence (O49010 1-363): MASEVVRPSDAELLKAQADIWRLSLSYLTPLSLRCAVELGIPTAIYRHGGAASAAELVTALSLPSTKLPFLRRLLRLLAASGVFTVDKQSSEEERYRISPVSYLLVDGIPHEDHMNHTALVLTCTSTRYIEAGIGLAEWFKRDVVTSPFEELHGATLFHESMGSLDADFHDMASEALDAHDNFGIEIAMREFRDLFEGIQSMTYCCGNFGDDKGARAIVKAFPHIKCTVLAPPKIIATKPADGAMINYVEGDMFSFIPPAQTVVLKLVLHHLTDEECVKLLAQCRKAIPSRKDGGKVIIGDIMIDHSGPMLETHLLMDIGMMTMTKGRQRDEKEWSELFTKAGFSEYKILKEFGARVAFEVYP
Experimental: Binding Assay. Racemic R-29148 (Saf) and [^3 H]Saf (specific activity 15 Ci/mmol) were prepared according to Latli, B. et al., J. Labelled Cmpd Radiopharmn. 36:147-155 (1995). The sources of other chemicals are given in Walton, J. D. and Casida, J. E., Plant Physiol. 109:213-219 (1995). [^3 H]Saf binding was measured by incubating extracts with ca. 400,000 cpm of [^3 H]Saf in 50 mM Tris-HCl, pH 8, in a total volume of 1 mL for 60 min at 22° C. The extracts were then filtered through GF/A (Whatman) glass fiber filters that had been soaked in 0.3% polyethylenimine, the filters rinsed with water, and radioactivity retained on the filters measured by scintillation counting. Walton, J. D. and Casida, J. E., Plant Physiol. 109:213-219 (1995).
Expression of SafBP in E. coli. Vector pZL1 (Gibco-BRL) containing the SafBP cDNA clone was digested with EcoRI and NotI, the 1.5-kb insert cloned into the corresponding sites in the E. coli expression vector pET21c (Novagen, Madison, Wis.), and the resulting construct transformed into E. coli strain BL21(DE3) (Novagen). A 50-mL culture of this strain was grown at 37° C. to an OD600 of 0.5 at which point expression of the cDNA was induced with 1 mM isopropylthiogalactoside (IPTG). As a control, E. coli BL21(DE3) transformed with pET21c with no insert was grown in parallel. Samples (each 12.5 mL) were removed at 0, 1, 2, and 3 hr after induction, centrifuged, and extracted by the freeze-thaw method according to Novagen, and centrifuged again to remove cell debris. Each sample was in a final volume of 5 mL of 50 mM Tris-HCl, pH 8; 50 μL of this was used in the [^3 H]Saf binding assay according to Walton and Casida. Walton, J. D. and Casida, J. E., Plant Physiol. 109:213-219 (1995).
SBP1 was expressed in E. coil behind an IPTG-inducible promoter. Extracts of E. coil expressing SBP1 have strong SafBA whereas cells transformed with the empty expression vector have no binding (Table II). […] After growing to an OD600 of 0.5, cells were induced with IPTG and aliquots harvested at the indicated times after induction, lysed, and centrifuged to remove cell debris. Final volume of each extract was 5 mL. Control cells were transformed with the vector without insert. Values are the average of duplicates. Like [^3 H]Saf binding to the native maize protein, [^3 H]Saf binding in E. coli extracts is inhibited by dichlormid, EPTC, metolachlor, acetochlor, and alachlor (Table III). Table III provides inhibition of [^3 H]Saf binding by safeners and herbicides in extracts of E. coli expressing SBP1. The E.coli/SBP1 2-hr time point from […] was used; protein content per sample was 20.9 μg. Values are the average of duplicates.

[3] = competitor Concentration 1.1 (unit not given)

Structure (SMILES)	IC50 [1]	SafBP binds herbicide [1]	Inhibition of R-29148 binding in extracts of E. coli cells expressing SBP1 [2]	Total [3H]Saf binding [2, 3]	also measured
CC1CN(C(=O)C(Cl)Cl)C(C)(C)O1 (racemic) [R-29148, (R,S)-3-dichloroacetyl-2,2,5-trimethyloxazolidine]	120 nM	–	–	–	Kd ([1]; soluble, high affinity binding activity in extracts of etiolated maize seedlings, read-out: Kd of safener binding activity (SafBA) for [3H]Saf): 120 nM; Total [3H]Saf binding ([2]; competitor Concentration 2.5 (unit not given)): 3.0
CCCN(CCC)C(=O)SCC [EPTC, S-ethyl dipropylthiocarbamate]	110 nM	binds	competitively inhibited	–	Total [3H]Saf binding ([2]; competitor Concentration 1.6 (unit not given)): 1.7
CCOCN(C(=O)CCl)c1c(C)cccc1CC [acetochlor]	180 nM	binds	inhibited	21.6	–
CCc1cccc(CC)c1N(COC)C(=O)CCl [alachlor]	70 nM	binds	competitively inhibited	1.7	–
CCSC(=O)N(CC(C)C)CC(C)C [butylate]	–	binds	–	–	–
CCSC(=O)N(CC)C1CCCCC1 [cycloate]	–	binds	–	–	–
C=CCN(CC=C)C(=O)C(Cl)Cl [dichlormid]	10 nM	–	competitively inhibited	–	Total [3H]Saf binding ([2]; competitor Concentration 1.4 (unit not given)): 0.7
CCc1cccc(C)c1N(C(=O)CCl)C(C)COC (centres unmarked) [metolachlor]	40 nM	binds	competitively inhibited	3.3	–
CC(C)N(C(=O)CCl)c1ccccc1 [propachlor]	–	binds	–	–	–
CC(C)N(C(=O)SCC(Cl)=C(Cl)Cl)C(C)C [triallate]	–	binds	–	–	–
